pIC50: −log10 of the molar value.

Usually pIC50 stands for the IC50 on a negative log10 scale, so that one unit is a factor of ten.

The target of test [1] is T1, Signal transducer and activator of transcription 1-alpha/beta (Homo sapiens, UniProt P42224).
T1 sequence (P42224 whole entry): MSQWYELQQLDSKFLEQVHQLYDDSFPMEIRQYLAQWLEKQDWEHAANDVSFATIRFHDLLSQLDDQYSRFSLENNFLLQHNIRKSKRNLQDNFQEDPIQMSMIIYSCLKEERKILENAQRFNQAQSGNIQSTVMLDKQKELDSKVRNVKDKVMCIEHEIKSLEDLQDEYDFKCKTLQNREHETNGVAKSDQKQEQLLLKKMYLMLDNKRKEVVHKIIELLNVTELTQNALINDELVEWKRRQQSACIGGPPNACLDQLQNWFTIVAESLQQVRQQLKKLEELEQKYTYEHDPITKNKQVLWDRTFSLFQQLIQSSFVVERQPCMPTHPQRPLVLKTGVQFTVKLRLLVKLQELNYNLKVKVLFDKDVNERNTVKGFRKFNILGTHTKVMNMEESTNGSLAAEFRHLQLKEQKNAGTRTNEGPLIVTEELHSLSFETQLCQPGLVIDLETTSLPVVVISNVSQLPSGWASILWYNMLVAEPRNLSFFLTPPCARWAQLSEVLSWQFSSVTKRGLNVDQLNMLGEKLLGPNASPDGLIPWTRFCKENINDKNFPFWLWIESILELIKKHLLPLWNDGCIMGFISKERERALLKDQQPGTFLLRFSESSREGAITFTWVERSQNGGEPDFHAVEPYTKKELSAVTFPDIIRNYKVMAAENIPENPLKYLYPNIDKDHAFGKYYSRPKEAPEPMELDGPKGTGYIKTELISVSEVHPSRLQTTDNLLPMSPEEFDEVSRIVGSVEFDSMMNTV
The test can be described thus: Electrophoretic Mobility Shift Assay (EMSA). As to conditions: pH 7.8; 22 °C. As for the experimental part:
(§1) STAT proteins were expressed in Sf9 cells from a baculovirus encoding the recombinant protein. A nuclear extract of the Sf9 cells was incubated with 32P-labeled high affinity c-fos sis inducible element (hSIE) either alone or in the presence of inhibitor. After incubation, samples were electrophoresed on polyacrylamide gels. The gels were dried, exposed to a phosphorimager screen and scanned. IC50 values were derived from plots of spot intensity versus phosphopeptide concentration. The affinity of peptides to the SH2 domain is measured by the intensity of the radioactivity of the Stat-DNA complex band in the electrophoresis gel.
A general note: A gel shift assay detects complexes by their altered migration in electrophoresis.

Test [2] addresses Signal transducer and activator of transcription 3 (Mus musculus, UniProt P42227). The test can be described thus: Electrophoretic Mobility Shift Assay (EMSA). As to conditions: pH 7.8; 22 °C. Here is the method:
as §1

Chain of Signal transducer and activator of transcription 3 (P42227 whole entry): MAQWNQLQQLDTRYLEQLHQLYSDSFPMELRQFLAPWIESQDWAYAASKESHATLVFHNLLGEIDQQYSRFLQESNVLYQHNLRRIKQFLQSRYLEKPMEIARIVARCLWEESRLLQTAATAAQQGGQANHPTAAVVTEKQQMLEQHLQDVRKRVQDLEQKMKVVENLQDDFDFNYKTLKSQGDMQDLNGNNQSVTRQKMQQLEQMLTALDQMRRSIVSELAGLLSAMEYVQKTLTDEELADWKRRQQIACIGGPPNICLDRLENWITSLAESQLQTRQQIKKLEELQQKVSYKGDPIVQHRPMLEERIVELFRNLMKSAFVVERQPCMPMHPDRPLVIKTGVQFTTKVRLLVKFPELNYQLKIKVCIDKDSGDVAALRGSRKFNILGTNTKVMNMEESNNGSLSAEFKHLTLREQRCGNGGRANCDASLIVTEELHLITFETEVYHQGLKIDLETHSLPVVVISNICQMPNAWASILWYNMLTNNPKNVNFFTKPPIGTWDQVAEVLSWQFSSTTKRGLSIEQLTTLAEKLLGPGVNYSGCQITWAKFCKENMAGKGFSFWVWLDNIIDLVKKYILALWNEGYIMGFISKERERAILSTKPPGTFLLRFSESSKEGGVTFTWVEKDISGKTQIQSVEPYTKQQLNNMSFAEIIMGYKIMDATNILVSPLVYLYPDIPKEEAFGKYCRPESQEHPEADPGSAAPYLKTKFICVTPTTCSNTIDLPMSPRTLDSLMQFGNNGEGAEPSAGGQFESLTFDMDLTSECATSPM

With `CC(C)C[C@H](NC(=O)[C@H](Cc1ccc(OP(=O)(O)O)cc1)NC(=O)c1ccc(C#N)cc1)C(=O)NC(C)C` [4-[(2S)-2-[(4-cyanophenyl)formamido]-2-{[(1S)-3-methyl-1-(propan-2-ylcarbamoyl)butyl]carbamoyl}ethyl]phenoxyphosphonic acid], the pIC50 in test [1] is 4.24; in test [2], 3.12.

The record behind these values is BindingDB's records for doi:10.1016/j.bmcl.2007.01.077 (Yale University, 2007).
